Test results: PubChem BioAssay AID1963973 (Molecular Pharmacology Branch, DTP, NCI, 2024)
pIC50: −log10 of the molar value.

Test system: 883617-216-R-J1-PDC tumor spheroids, viability
Assay: Anticancer human tumor 883617-216-R-J1-PDC patient-derived bladder carcinoma cell line growth inhibition [PI3K]
Details: spheroids with HUVEC and MSC; for pIC50: curve of first compound; for viability, T/C: stronger effect = lower value
In short: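 Multi-cell spheroids combine tumor cells with HUVEC and human MSCs, treated with targeted agents alone or with inavolisib, alpelisib, duvelisib or copanlisib. Concentrations fall in half-log steps from at or near clinical Cmax, or from 10 microM where Cmax is unknown; viability read-out.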

[1] = second compound 0.00316 µM, first compound 0.0316 µM
[2] = second compound 0.00316 µM, first compound 0.1 µM
[3] = second compound 0.00316 µM, first compound 0.316 µM
[4] = second compound 0.00316 µM, first compound 1 µM
[5] = second compound 0.00316 µM, first compound 3.16 µM
[6] = second compound 0.00316 µM, first compound 10 µM
[7] = second compound 0.01 µM, first compound 0.0316 µM
[8] = second compound 0.01 µM, first compound 0.1 µM
[9] = second compound 0.01 µM, first compound 0.316 µM
[10] = second compound 0.01 µM, first compound 1 µM
[11] = second compound 0.01 µM, first compound 3.16 µM
[12] = second compound 0.01 µM, first compound 10 µM
[13] = second compound 0.0316 µM, first compound 0.0316 µM
[14] = second compound 0.0316 µM, first compound 0.1 µM
[15] = second compound 0.0316 µM, first compound 0.316 µM
[16] = second compound 0.0316 µM, first compound 1 µM
[17] = second compound 0.0316 µM, first compound 3.16 µM
[18] = second compound 0.0316 µM, first compound 10 µM
[19] = second compound 0.1 µM, first compound 0.0316 µM
[20] = second compound 0.1 µM, first compound 0.1 µM
[21] = second compound 0.1 µM, first compound 0.316 µM
[22] = second compound 0.1 µM, first compound 1 µM
[23] = second compound 0.1 µM, first compound 3.16 µM
[24] = second compound 0.1 µM, first compound 10 µM
[25] = second compound 0.316 µM, first compound 0.0316 µM
[26] = second compound 0.316 µM, first compound 0.1 µM
[27] = second compound 0.316 µM, first compound 0.316 µM
[28] = second compound 0.316 µM, first compound 1 µM
[29] = second compound 0.316 µM, first compound 3.16 µM
[30] = second compound 0.316 µM, first compound 10 µM
[31] = second compound 1 µM, first compound 0.0316 µM
[32] = second compound 1 µM, first compound 0.1 µM
[33] = second compound 1 µM, first compound 0.316 µM
[34] = second compound 1 µM, first compound 1 µM
[35] = second compound 1 µM, first compound 3.16 µM
[36] = second compound 1 µM, first compound 10 µM
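Note: spheroids exposed to agents for 7 days before the viability read.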

Structure (SMILES): Cn1ncc(Cl)c1-c1cc(C(=O)NC(CN)Cc2cccc(F)c2)sc1Cl (centres undefined) + CC(Nc1ccc2c(c1)OCCn1cc(N3C(=O)OCC3C(F)F)nc1-2)C(N)=O
- pIC50 (second compound 0.00316 µM): 6.55
- pIC50 (second compound 0.01 µM): 6.34
- pIC50 (second compound 0.0316 µM): 6.65
- pIC50 (second compound 0.1 µM): > 7.50
- pIC50 (second compound 0.316 µM): > 7.50
- pIC50 (second compound 1 µM): > 7.50
- viability, T/C [1]: 82.8%
- viability, T/C [2]: 69.4%
- viability, T/C [3]: 51.2%
- viability, T/C [4]: 28.9%
- viability, T/C [5]: 10.6%
- viability, T/C [6]: 87.3%
- viability, T/C [7]: 88.9%
- viability, T/C [8]: 90.2%
- viability, T/C [9]: 52.5%
- viability, T/C [10]: 27.2%
- viability, T/C [11]: 10.3%
- viability, T/C [12]: 96.1%
- viability, T/C [13]: 67%
- viability, T/C [14]: 63.6%
- viability, T/C [15]: 43.2%
- viability, T/C [16]: 21.7%
- viability, T/C [17]: 8.53%
- viability, T/C [18]: 64.1%
- viability, T/C [19]: 43.8%
- viability, T/C [20]: 44%
- viability, T/C [21]: 30.7%
- viability, T/C [22]: 15.2%
- viability, T/C [23]: 7.17%
- viability, T/C [24]: 51.4%
- viability, T/C [25]: 23.5%
- viability, T/C [26]: 25.2%
- viability, T/C [27]: 18.6%
- viability, T/C [28]: 11%
- viability, T/C [29]: 5.52%
- viability, T/C [30]: 21.4%
- viability, T/C [31]: 13.5%
- viability, T/C [32]: 12.6%
- viability, T/C [33]: 11.8%
- viability, T/C [34]: 8.52%
- viability, T/C [35]: 5.53%
- viability, T/C [36]: 13.3%

Structure (SMILES): Cn1nccc1Nc1nccc(-c2ccn(C(CO)c3ccc(Cl)c(F)c3)c(=O)c2)n1 (centres undefined) + CC(Nc1ccc2c(c1)OCCn1cc(N3C(=O)OCC3C(F)F)nc1-2)C(N)=O
- pIC50 (second compound 0.00316 µM): 5.03
- pIC50 (second compound 0.01 µM): < 5.00
- pIC50 (second compound 0.0316 µM): 6.05
- pIC50 (second compound 0.1 µM): > 7.50
- pIC50 (second compound 0.316 µM): > 7.50
- pIC50 (second compound 1 µM): > 7.50
- viability, T/C [1]: 83.2%
- viability, T/C [2]: 67.5%
- viability, T/C [3]: 80.3%
- viability, T/C [4]: 75.6%
- viability, T/C [5]: 80.1%
- viability, T/C [6]: 48.1%
- viability, T/C [7]: 85.6%
- viability, T/C [8]: 74.7%
- viability, T/C [9]: 77.3%
- viability, T/C [10]: 64.2%
- viability, T/C [11]: 58.2%
- viability, T/C [12]: 50.1%
- viability, T/C [13]: 66.5%
- viability, T/C [14]: 65.9%
- viability, T/C [15]: 67.1%
- viability, T/C [16]: 48.1%
- viability, T/C [17]: 35.9%
- viability, T/C [18]: 34.2%
- viability, T/C [19]: 44%
- viability, T/C [20]: 45.1%
- viability, T/C [21]: 38.1%
- viability, T/C [22]: 37.1%
- viability, T/C [23]: 27.6%
- viability, T/C [24]: 22.4%
- viability, T/C [25]: 25.1%
- viability, T/C [26]: 22.8%
- viability, T/C [27]: 17.2%
- viability, T/C [28]: 16.2%
- viability, T/C [29]: 15.2%
- viability, T/C [30]: 9.06%
- viability, T/C [31]: 14.9%
- viability, T/C [32]: 13.6%
- viability, T/C [33]: 12%
- viability, T/C [34]: 11%
- viability, T/C [35]: 9.01%
- viability, T/C [36]: 6.11%
